Experimental data published in US20240139167A1, “LYSOSOME-ASSOCIATED MEMBRANE PROTEIN TARGETING COMPOUNDS AND USES THEREOF” (HADASIT MEDICAL RESEARCH SERVICES AND DEVELOPMENT LTD., priority 2021, published 2024).

Legend:
[1] = Irwin test (abnormal spontaneous behavior); type: in vivo, mice; design: Wounds / Transfer behavior / Tremor / Gait / Tail elevation / Touch escape / Trunk curl / Righting reflex / Salivation / Extension reflex: scale not given here
Description: The inventors have tested Compound 1 (FIG. 1A) for its capacity to correct the deficient motor phenotypes and short lifespan in the APBD mouse model Gbe^ys/ys. Compound 1 is one of 19 PG reducing HTS hits previously discovered by the inventors. It was selected by in silico ADMET (Absorption, Distribution, Metabolism, Excretion, and Toxicity) tests run on these hits to predict which of them should be safe and pharmacokinetically and pharmacodynamically preferred and is therefore worth further pursuit (FIG. 8, compound “A”). […] Following 1 h and 24 h treatments, mice were also examined for abnormal spontaneous behavior, such as immobility, excessive running, stereotyped movements, and abnormal posture (Irwin tests).

[2] = tested on: APBD and HC skin fibroblasts; test: Image-based phenotyping (IBP); type: cell-based, human
Description: FIGS. 7A-7F include graphs of IBP parameters in HC and APBD fibroblasts and variable importance plot as an output of the random forest classification performed on the different variables (cell features) indicated on the x-axis. […] The different comparisons analyzed (comp A=Compound 1) are shown (7B); bar graphs of lysosomal parameters affected by Compound 1 in APBD and HC cells as analyzed by IBP (7C); Volcano plots of the proteins affected by APBD and Compound 1 under starvation and glycogen burden conditions (7D); Venn diagrams of proteins down-modulated by APBD and up modulated by Compound 1 and vice versa under starvation (48) and glycogen burden (48+24) conditions (7E); and gene ontology of proteins up-modulated (left) and down-modulated (right) by Compound 1 (7F).
APBD skin fibroblasts were seeded at 1,000 cells/well and cultured in specialized microscopy-grade 96-well plates (Grenier Bio-One, Germany). Following the different treatments, a mix of Thermo Scientific cellular fluorescent dyes in PBS was added to each well for 30 min at 37° C. in a 5% CO2 incubator. This mix (FIGS. 4C and 7B) included DAPI (1 μg/ml, nuclear (DNA) stain), MitoTracker Green (500 nM, potential-independent mitochondrial stain), TMRE ([…] mitochondrial stain), and Cell Mask Deep Red (0.5 μg/ml, cytosol stain). In FIG. 7C, only lysosomes were stained with LysoTracker Deep Red (75 nM). Cells were then fixed with 4% paraformaldehyde (PFA), washed with PBS and plates were transferred to an InCell2200 (GE Healthcare, U.K.) machine for image acquisition at 40× magnification. The output produced was based on comparative fluorescence intensity. Object segmentation was carried out using multi-target analysis in the GE analysis workstation to identify the nuclei and cell boundary. […]
As a first step, the inventors required a classification method, both wholistic and feature-specific, which would enable to quantify differences between APBD and HC cells and thus to estimate the restorative effect of Compound 1 on APBD cells. […]

In the case of `COCCN(Cc1sccc1C)C(=O)c1cc(C)nc(O)c1` [Compound 1], the Appearance of fur ([1]; 50 mg/kg, 1 h) is reported as 2, the Body position ([1]; 50 mg/kg, 1 h) is reported as 3.5 and the Coat color ([1]; 50 mg/kg, 1 h) is reported as “Black”. The Extension reflex ([1]; 50 mg/kg, 1 h) was 2, the Gait ([1]; 50 mg/kg, 1 h) was 0 and the “Patches of missing fur on body” value ([1]; 50 mg/kg, 1 h) was 0. For the same molecule, the “Patches of missing fur on face” value ([1]; 50 mg/kg, 1 h) was 0, the Pelvic elevation ([1]; 50 mg/kg, 1 h) was 2 and the Piloerection ([1]; 50 mg/kg, 1 h) was 0. It also gave a Positional passivity ([1]; 50 mg/kg, 1 h) of 0, a Presence of whiskers ([1]; 50 mg/kg, 1 h) of 3 and a Righting reflex ([1]; 50 mg/kg, 1 h) of 0. For the same molecule, the Salivation ([1]; 50 mg/kg, 1 h) was 0, the Tail elevation ([1]; 50 mg/kg, 1 h) was 1 and the Touch escape ([1]; 50 mg/kg, 1 h) was 2. The Transfer behavior ([1]; 50 mg/kg, 1 h) was 5, the Tremor ([1]; 50 mg/kg, 1 h) was 0 and the Trunk curl ([1]; 50 mg/kg, 1 h) was 0. For the same molecule, the Wounds ([1]; 50 mg/kg, 1 h) was 0, the Appearance of fur ([1]; 50 mg/kg, 24 h) was 2 and the Body position ([1]; 50 mg/kg, 24 h) was 3.5. The Coat color ([1]; 50 mg/kg, 24 h) was “Black”, the Extension reflex ([1]; 50 mg/kg, 24 h) was 2 and the Gait ([1]; 50 mg/kg, 24 h) was 0. For the same molecule, the “Patches of missing fur on body” value ([1]; 50 mg/kg, 24 h) was 0, the “Patches of missing fur on face” value ([1]; 50 mg/kg, 24 h) was 0 and the Pelvic elevation ([1]; 50 mg/kg, 24 h) was 2. The Piloerection ([1]; 50 mg/kg, 24 h) was 0, the Positional passivity ([1]; 50 mg/kg, 24 h) was 0 and the Presence of whiskers ([1]; 50 mg/kg, 24 h) was 3. The Righting reflex ([1]; 50 mg/kg, 24 h) was 0, the Salivation ([1]; 50 mg/kg, 24 h) was 0 and the Tail elevation ([1]; 50 mg/kg, 24 h) was 1. The Touch escape ([1]; 50 mg/kg, 24 h) was 2, the Transfer behavior ([1]; 50 mg/kg, 24 h) was 5 and the Tremor ([1]; 50 mg/kg, 24 h) was 0. For the same molecule, the Trunk curl ([1]; 50 mg/kg, 24 h) was 0, the Wounds ([1]; 50 mg/kg, 24 h) was 0 and the Appearance of fur ([1]; 250 mg/kg, 1 h) was 2. The Body position ([1]; 250 mg/kg, 1 h) was 3, the Coat color ([1]; 250 mg/kg, 1 h) was “Black” and the Extension reflex ([1]; 250 mg/kg, 1 h) was 2. For the same molecule, the Gait ([1]; 250 mg/kg, 1 h) was 0, the “Patches of missing fur on body” value ([1]; 250 mg/kg, 1 h) was 0 and the “Patches of missing fur on face” value ([1]; 250 mg/kg, 1 h) was 0. It also gave a Pelvic elevation ([1]; 250 mg/kg, 1 h) of 2, a Piloerection ([1]; 250 mg/kg, 1 h) of 0 and a Positional passivity ([1]; 250 mg/kg, 1 h) of 0. The Presence of whiskers ([1]; 250 mg/kg, 1 h) was 3, the Righting reflex ([1]; 250 mg/kg, 1 h) was 0 and the Salivation ([1]; 250 mg/kg, 1 h) was 0. For the same molecule, the Tail elevation ([1]; 250 mg/kg, 1 h) was 1, the Touch escape ([1]; 250 mg/kg, 1 h) was 2 and the Transfer behavior ([1]; 250 mg/kg, 1 h) was 5. For the same molecule, the Tremor ([1]; 250 mg/kg, 1 h) was 0, the Trunk curl ([1]; 250 mg/kg, 1 h) was 0 and the Wounds ([1]; 250 mg/kg, 1 h) was 0. The Appearance of fur ([1]; 250 mg/kg, 24 h) was 2, the Body position ([1]; 250 mg/kg, 24 h) was 3 and the Coat color ([1]; 250 mg/kg, 24 h) was “Black”. The Extension reflex ([1]; 250 mg/kg, 24 h) was 2, the Gait ([1]; 250 mg/kg, 24 h) was 0 and the “Patches of missing fur on body” value ([1]; 250 mg/kg, 24 h) was 0. The “Patches of missing fur on face” value ([1]; 250 mg/kg, 24 h) was 0, the Pelvic elevation ([1]; 250 mg/kg, 24 h) was 2 and the Piloerection ([1]; 250 mg/kg, 24 h) was 0. The Positional passivity ([1]; 250 mg/kg, 24 h) was 0, the Presence of whiskers ([1]; 250 mg/kg, 24 h) was 3 and the Righting reflex ([1]; 250 mg/kg, 24 h) was 0. The Salivation ([1]; 250 mg/kg, 24 h) was 0, the Tail elevation ([1]; 250 mg/kg, 24 h) was 1 and the Touch escape ([1]; 250 mg/kg, 24 h) was 2. The Transfer behavior ([1]; 250 mg/kg, 24 h) was 5, the Tremor ([1]; 250 mg/kg, 24 h) was 0 and the Trunk curl ([1]; 250 mg/kg, 24 h) was 0. The Wounds ([1]; 250 mg/kg, 24 h) was 0, the “adverse effect in Irwin tests” value ([1]; 1 h and 24 h treatments) was “did not cause any adverse effect” and the “IBP signature, features affected” value [2] was “mostly affected nuclear and mitochondrial membrane potential (TMRE) parameters”. The lysosomal size ([2]; APBD cells) was “reduced lysosomal size” and the “mitochondrial membrane potential (MMP)” value ([2]; APBD cells) was “hyperpolarized”.
